From US5039792A, “Allatostatins which inhibit insect juvenile hormone biosynthesis” (Oregon State University, priority 1989, dated 1991)
Ends that are not written are not given here.

Test system: juvenile hormone III synthesis by corpora allata
Assay: in vitro radiochemical assay for inhibition of juvenile hormone III synthesis and release by corpora allata
Format: cell-based, Diploptera punctata
Details: for IC50: inhibition of juvenile hormone synthesis and release, two hour in vitro radiochemical assay, corpora allata from ten day old pregnant females, read-out: Bioactivity as I.C.50 (Day 10 Donors)
Method: This assay for inhibition of JH synthesis is conducted as described by G. E. Pratt and J. R. Finney, in Crop Protection Agents: their biological evaluation, N. R. McFarlane, Ed. (Academic Press, New York, 1976)) except it is modified by the use of rapid partition instead of thin layer chromatography to isolate the newly synthesized JH and also modified by a reduction of incubation time to two hours.
Biological activities are determined for all RP18.cndot.HPLC fractions. […] Juvenile hormone III is synthesized de novo from acetyl-CoA through the classical isoprenoid pathway to farnesyl pyrophosphate (D. A. Schooley and F. C. Baker, in Comprehensive Insect Physiology, Biochemistry and Pharmacology, G. A. Kerkut and L. I. Gilbert, Eds. (Pergamon, Oxford, 1985) Vol. 7, pp. 363-389) and the enzymatic conversion of […] to JH can be stimulated in vitro by exogenous 2E,6E […] (Aldrich, Milwaukee, Wis.) which presumably alleviates a limitation in the biosynthetic flux (R. Feyereisen, J. Koener, S. S. Tobe, in Juvenile Hormone Biochemistry, G. E. Pratt and G. T. Brooks, Eds. (Elsevier, Amsterdam, 1981), pp. 81-92). […] The target of this allatostatin is therefore located early in the biosynthetic pathway. Juvenile hormone synthesis is determined at the end of two hours in these assays and bioactivity is measured as the ability of the peptide to inhibit biosynthesis of the JHIII. The peptide yields as determined from sequence analysis correspond to approximately 35 fmole/brain-complex. This is approximately one third the yield of the smaller known allatostatins (see G. E. Pratt et al. Biochem. & Biophys. Res. Commun. 163:1243 (1989) and A. P. Woodhead et al. Prod. Natl. Acad. Sci. 86:5997 (1989).
The inhibition of JH III synthesis and release by corpora allata (CA) from ten day old pregnant females is measured by an in vitro radiochemical assay. The three hour assay for inhibitors of JH synthesis (G. E. Pratt and J. R. Finney, in Crop Protection Agents: their biological evaluation, N. R. McFarlane, Ed. (Academic Press, New York, 1976) pp. 113-132) is modified by the use of rapid partition instead of thin layer chromatography to isolate the newly synthesized JH III (R. Feyereisen and S. S. Tobe, Anal. Biochem. 111: 372 (1981)) and modified by a reduction of incubation time to two hours. In each assay, run in seven replicates, one pair of CA was incubated with 50 μM (methyl-^3 H) methionine and putative inhibitor in 0.1 mL of TC199 containing 2% Ficoll, 0.1% bovine serum albumin and 0.03% bacitracin. The test glands show maximum sensitivity to the allatostatic action of brain extracts. R. Feyereisen and D. E. Farnsworth, Insect Biochem. 17,939 (1987); S. M. Rankin and B. Stay, J. Insec. Physiol. 33, 551 (1987).

LRVYNFGL-NH2 [LRVYNFGL-NH2]
IC50: 118 nM

Ac-AYSYVSEYKRLPVYNFGL-NH2 [acetyl-AYSYVSEYKRLPVYNFGL-NH2]
IC50: 1.5 nM

RLPVYNFGL-NH2 [RLPVYNFGL-NH2]
IC50: 270 nM

AYSYVSEYKRLPVYNFGL-NH2 [AYSYVSEYKRLPVYNFGL-NH2]
inhibition of JH III biosynthesis in dose-response assays in the presence of farnesol (in the presence of 200 μM farnesol, JH synthesis determined at the end of two hours): totally ineffective | biological activity in the in vitro assay (inhibition of JH synthesis) (in vitro radiochemical assay, corpora allata): biologically active | IC50: 0.3 nM

LPVYNFGL-NH2 [LPVYNFGL-NH2]
IC50: 50 nM

Ac-RLPVYNFGL-NH2 [acetyl-RLPVYNFGL-NH2]
IC50: 30 nM
